# How the values were obtained:
# Sprague-Daley rats = assay: Rat model of acute coronary artery occlusion, mortality; type: in vivo; conditions: for antiarrhythmic control after coronary artery occlusion: rat, in vivo
# Description: Another series of experiments were done using the rat model of acute coronary artery occlusion. In these experiments the effect of berberine was examined on mortality. Thus, Sprague-Daley rats (Charles River) weighing over 300 grams were anesthetized with ether, their chest opened in the 5th left intercostal space their heart everted and the left main coronary occluded with a surgical stitch. Thereafter the heart was repositioned and the thorax closed with a purse string suture, as described in more detail by us previously (Maclean, Fishbein, M. C. Braunwald, E. and Maroco, P. R., Long Term Presentation of Ischemic Myocardium After Experimental Coronary Artery Occlusion. J. Clin. Inv. 61, pages 541-551, 1978 and also in Maclean, D., Fishbein, M. D., Maroko, P. R. and Braunwald, Hyaluronidase-Induced Reductions In Myocardial Infarct Size. Science, 194, pages 199-200 (1976)). The mortality in rats weighing over […] was greater than in smaller rats.
# After finishing the surgical procedure, the rats were randomized into controls (injection of 5% dextrose in water) and berberine treated (1 mg/Kg intravenously as a bolus).
# dog = assay: Protocol M simile: high or repetitive infusions in single dogs; type: in vivo
# Experimental: It is noted that the dP/dt increased by 350% after the eighth dose and dF/dt by 450%.
# In one dog using protocol M simile, 240 mg/Kg of berberine HCI was administered and dP/dt increased by 75%, aortic flow by 67%, heart rate fell from 150 to 114 beats/min., diastolic aortic pressure fell from 92 to 67 mmHg, and left atrial pressure fell from 8.5 to 7.5 mmHg.
# When this type of experiment was repeated with tetrahydropalmatine, a first dose of 3.5 mg/Kg was given without maintaining the pressure constant and arterial pressure fell from 142/115 to 118/90 mmHg. When the second infusion was given with constant pressure, dP/dt increased by 17%.
# LD50 = conditions: cat, in vivo
# [1] = test system: dogs with acute left ventricular failure; assay: MUGR ejection fraction in dogs with acute left ventricular failure after coronary embolization; type: in vivo; conditions: for EF: 0.2 mg/Kg/min
# Experimental: Nevertheless, to verify the response of dogs with acute heart failure with this sophisticated technique, this condition was provoked by previous embolization into the left coronary artery (as described below in protocol HV). thereafter, the effect of berberine infusion was analyzed after embolization. […] Berberine was infused in a rate of 0.2 mg/Kg/min for 30 minutes and MUGR was repeated after 2, 15, 22 and 28 minutes of infusion.
# Six dogs were studied using this technique (Table XV). […] The thirty minute infusion of berberine (0.2 mg/Kg/min) was administered. During this period four radionuclide ventriculographies were obtained and averaged. After discontinuation of the infusion again four radionuclide ventriculographies were obtained in the next thirty minutes and averaged.
# dogs [2] = assay: Protocol RK, single dose: dose response on systemic arterial pressure and heart rate; type: in vivo; conditions: for average fall in mean arterial pressure: 90 minutes after injection
# Experimental: In 4 groups of dogs instrumented as in the last series of experiments (Protocol RK) the effects of increasing dose response on systemic arterial pressure was examined. The only difference from that protocol was that only one dose of berberine (as opposed to two) was administered.
# The effects on the measured parameters is dose responsive. In four groups of dogs, the changes in blood pressure were analyzed. The dosage administered was7.5,15,30 and 70 mg/Kg. It was observed that generally blood pressure drop was most marked in the first 5 minutes. After 90 minutes following the injection (when the experiment wad discontinued), the average fall in mean arterial pressure in the group which received 15 mg/Kg was 19 mmHg; in the group that received 30 mg/Kg it was 37 mmHg and in the group that received 70 mg/Kg it was 63 mmHg.
# dogs [3] = assay: Three week toxicology study in 12 dogs; type: in vivo; conditions: 0.2 mg/kg/min for 60 minutes twice daily for 3 weeks
# [4] = test system: dogs with acute left ventricular failure; assay: MUGR ejection fraction in dogs with acute left ventricular failure after coronary embolization; type: in vivo; conditions: another dog, 0.2 mg/Kg/min
# trained conscious dogs = assay: Protocol F: multiple gated radionuclide ventriculography (MUGR), ejection fraction in conscious dogs without failing heart; type: in vivo
# Experimental: To determine further the effects of berberine on patients, experiments were carried out on conscious dogs (Protocol F) and the measurement of left ventricular performance was assessed atraumatically using the multiple gated radionuclide ventriculography (MUGR) similarly to what is done in patients. The multiple gated radionuclide ventriculography is used in patients to assess their cardiac (i.e. left ventricular) performance by analyzing in an. atraumatic manner, the ejection fraction (EF) of the left ventricle. This technique substituted the analysis of ejection fraction by contrast angiography since the latter can be done only in the catheterization laboratory with the patient submitted to the introduction of catheters into his arteries and left ventricular cavity as well as an injection of a radio-opaque dye. MUGR consists in using red blood cells labelled with stannous radioactive technetium. These red blod cells can be labelled either in vivo or in vitro prior to injection. The blood that is now emitting gamma radiation can be detected by an external gamma camera. This device can sum many cycles of the heart beat obtaining an average cycle. Then this cycle is divided in time intervals so that, as an example, the end systolic and the end diastolic frames can be identified. Ejection fraction is the end distolic minus the end systolic volumes divided by the end diastolic volume. It indicates therefore the pumping effectiveness of the left ventricle since it measures the fraction (or the percent if multiplied by 100) of the volume of blood that is expelled from the left ventricular cavity. Experiments were carried out in trained conscious dogs. 14.8.108 Bg (40 mCi) of […] used to label red blood cells that were then injected intravenously. […] The images were acquired using fixed density of the left ventricle. They were measured in quadruplicate and averaged. The external gamma camera used was Ohio Nuclear (model VIP 560).
# dogs [5] = assay: Supraventricular arrhythmias by topical application of aconitine to the atria; type: in vivo; conditions: intraveneous bolus 1-5 mg/Kg; aconitine (0.04%) solution
# [6] = one dog, after the eighth dose, 0.7 mg/kg/min repeated up to 56 mg/Kg
# [7] = second dog (Figure VI), after 15 minutes
smiles,measurement,setting,value
COc1cc2c(cc1O)C[C@H]1c3cc(O)c(OC)cc3CCN1C2 [coreximine],antiarrhythmic control after coronary artery occlusion,Sprague-Daley rats,like antiarrhythmic control is observable
same,result when the experiments are repeated,"dog; dog, in vivo",comparable results are obtained
COc1ccc2cc3[n+](cc2c1OC)CCc1cc2c(cc1-3)OCO2 [berberine],LD50,LD50,~55 mg/kg
same,EF,"[1]; another dog, at 2, 39 after embolization",60%
same,EF,"[1]; another dog, at 15",62%
same,EF,"[1]; one dog, 2 minutes of infusion, 27 after embolization",35%
same,EF,"[1]; one dog, 15 minutes",37%
same,EF,"[1]; one dog, 22 minutes",39%
same,EF,"[1]; one dog, 28 minutes",38%
same,increase of EF,[1]; six dogs,~50%
same,left ventricular ejection fraction (EF),"[1]; six dogs, during 30 minute infusion 0.2 mg/Kg/min, from 27 ± 3",40 ± 3%
same,EF after the discontinuation of infusion,"[1]; six dogs, next half an hour",continued to be significantly elevated
same,decrease of heart rate,dogs [2]; 7.5 mg/Kg,20 beats/min
same,decrease of heart rate,dogs [2]; 15 mg/Kg,16 beats/min
same,average fall in mean arterial pressure,dogs [2]; 15 mg/Kg,19 mmHg
same,average fall in mean arterial pressure,dogs [2]; 30 mg/Kg,37 mmHg
same,decrease of heart rate,dogs [2]; 35 mg/Kg,40 beats/min
same,decrease of heart rate,dogs [2]; 70 mg/Kg,103 beats/min
same,average fall in mean arterial pressure,dogs [2]; 70 mg/Kg,63 mmHg
same,primary arrhythmias,dogs [2]; 7.5 to 70 mg/Kg,No primary arrhythmias were obtained
same,rats that died within the first fifteen minutes,"Sprague-Daley rats; 1 mg/Kg intravenously as a bolus, controls seventeen out of twenty-four",six out of twenty- two
same,"side effects (electrolytes, heptatic function, renal function, proteins, coagulation, blood cells, platelet count)",dogs [3],no side effects were observed
same,tissues at post-mortem,dogs [3],normal histologically
same,arrhythmias,"dog; one dog, 240 mg/Kg",No arrhythmias were noted
same,increase of aortic flow,"dog; one dog, 240 mg/Kg",67%
same,increase of dP/dt,"dog; one dog, 240 mg/Kg",75%
same,left atrial pressure,"dog; one dog, 240 mg/Kg, from 8.5",7.5 mmHg
same,diastolic aortic pressure,"dog; one dog, 240 mg/Kg, from 92",67 mmHg
same,heart rate,"dog; one dog, 240 mg/Kg, from 150",114 beats/min
same,increase of dF/dt,dog; [6],450%
same,increase of dP/dt,dog; [6],350%
same,arrhythmias,"dog; one dog, up to 56 mg/Kg",No arrhythmias were observed
same,EF,[4]; at 20,55%
same,EF,[4]; at 30,55%
same,"ejection fraction (EF), average","trained conscious dogs; one dog, after first infusion",44 ± 2%
same,"ejection fraction (EF), average","trained conscious dogs; one dog, after second infusion",40 ± 2%
same,increase of EF versus the pre-berberine period,"trained conscious dogs; one dog, first infusion",33%
same,ejection fraction (EF),"trained conscious dogs; one dog, first infusion 0.7 mg/Kg/min 5 minutes, 1st reading (5 min), pre-berberine 33 ± 2",46%
same,ejection fraction (EF),"trained conscious dogs; one dog, first infusion, 2nd reading (15 min)",47%
same,ejection fraction (EF),"trained conscious dogs; one dog, first infusion, 3rd reading (30 min)",44%
same,ejection fraction (EF),"trained conscious dogs; one dog, first infusion, 4th reading (45 min)",38%
same,ejection fraction (EF),"trained conscious dogs; one dog, second infusion, 1st reading",46%
same,ejection fraction (EF),"trained conscious dogs; one dog, second infusion, 2nd reading",37%
same,ejection fraction (EF),"trained conscious dogs; one dog, second infusion, 3rd reading",40%
same,ejection fraction (EF),"trained conscious dogs; one dog, second infusion, 4th reading",38%
same,ejection fraction,"trained conscious dogs; second dog (Figure VI), 0.7 mg/Kg/min for 15 minutes, 1st reading, from 50",54%
same,ejection fraction,"trained conscious dogs; second dog (Figure VI), 2nd reading",65%
same,ejection fraction,trained conscious dogs; [7],70%
same,increase of ejection fraction,trained conscious dogs; [7],40%
same,"atrial ectopic beats, atrial tachycardia or atrial fibrillation",dogs [5],effective in abolishing these arrhythmias
COc1ccc2cc3[n+](cc2c1O)CCc1cc2c(cc1-3)OCO2 [berberrubine],antiarrhythmic control after coronary artery occlusion,Sprague-Daley rats,like antiarrhythmic control is observable

# — patent EP0108147B1, “Use of a protoberberine alkaloid and composition containing same” (MAROKO, Peter R., priority 1982, dated 1983)
